Measurements published in patent publication US20230135729A1, “COMPOUND WITH ANTI-SPORE ACTIVITY AND PHARMACEUTICAL COMPOSITION THEREOF” (priority 2020, published 2023).
≈ marks a conversion by molar mass, not a printed value.

Experiments:
Assay type in all cases: cell-based
[1] = system: spores of ATCC BBA1870 strain; assay: Inhibition of germination of C. difficile spores (MIC), strain ATCC BBA1870; details: Clostridioides difficile, ATCCBBA1870STRAIN, 1 h; strain 1870; sodium taurocholate as germinant, BHIS medium, 37° C., OD580 for 60 min; read-out: MIC (minimum concentration that completely inhibits spore germination)
Summary of the method: (§1)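 Spores heat-activated for 30 min at 65° C and washed, then preincubated with compound (10 mM DMSO stock) in BHIS at 37° C. Germination was triggered with sodium taurocholate, and OD580 was read each minute for 60 min. Inhibition = 100% − germination rate, from final vs initial OD relative to germinant-only controls.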

[2] = system: spores of ATCC 43255 strain; assay: Inhibition of germination of C. difficile spores (MIC), strain ATCC 43255; details: Clostridioides difficile, ATCC43255, 1 h; strain 43255; sodium taurocholate as germinant, BHIS medium, 37° C., OD580 for 60 min; read-out: MIC (minimum concentration that completely inhibits spore germination)
Summary of the method: as §1

[3] = system: spores of ATCC 630 strain; assay: Inhibition of germination of C. difficile spores (MIC), strain ATCC 630; details: Clostridioides difficile, ATCC630, 1 h; strain 630; sodium taurocholate as germinant, BHIS medium, 37° C., OD580 for 60 min; read-out: MIC (minimum concentration that completely inhibits spore germination)
Summary of the method: as §1

| Structure (SMILES) | MIC [1] [µM] | MIC [2] [µM] | MIC [3] [µM] |
| --- | --- | --- | --- |
| CC[C@@H](NC(=O)C[C@@H](C)[C@H]1CC[C@H]2[C@@H]3CC[C@@H]4C[C@H](O)CC[C@]4(C)[C@H]3CC[C@]12C)c1ccc(Br)s1 [Compound I-147] | 32 (≈ 18.1 µg/mL) | 16 (≈ 9.03 µg/mL) | 16 (≈ 9.03 µg/mL) |
| CC[C@@H](NC(=O)C[C@@H](C)[C@H]1CC[C@H]2[C@@H]3C(=O)CC4=CC(=O)C=C[C@]4(C)[C@H]3CC[C@]12C)c1ccc(Cl)s1 [Compound I-153] | 0.5 (≈ 0.264 µg/mL) | 0.5 (≈ 0.264 µg/mL) | 0.5 (≈ 0.264 µg/mL) |
| CC(C)[C@@H](NC(=O)C[C@@H](C)[C@H]1CC[C@H]2[C@@H]3[C@H](OC(=O)CCC(=O)O)C[C@@H]4CC(=O)CC[C@]4(C)[C@H]3CC[C@]12C)c1ccc(Cl)s1 [Compound I-181] | 2 (≈ 1.3 µg/mL) | 2 (≈ 1.3 µg/mL) | 2 (≈ 1.3 µg/mL) |
| CC(C)[C@H](NC(=O)C[C@@H](C)[C@H]1CC[C@H]2[C@@H]3C(=O)C[C@@H]4CC(=O)CC[C@]4(C)[C@H]3CC[C@]12C)c1cccs1 [Compound I-67] | > 256 | > 256 | > 256 |
| CC[C@@H](NC(=O)C[C@@H](C)[C@H]1CC[C@H]2[C@@H]3[C@@H](O)C[C@@H]4CC(=O)CC[C@]4(C)[C@H]3CC[C@]12C)c1ccc(Cl)s1 [Compound I-163] | 32 (≈ 17.1 µg/mL) | 32 (≈ 17.1 µg/mL) | 32 (≈ 17.1 µg/mL) |
| CC(C)C(NC(=O)C[C@@H](C)[C@H]1CC[C@H]2[C@@H]3[C@H](O)C[C@@H]4CC(=O)CC[C@]4(C)[C@H]3CC[C@]12C)c1cccs1 (stereo partly drawn) [Compound I-134] | 2 (≈ 1.03 µg/mL) | 2 (≈ 1.03 µg/mL) | 2 (≈ 1.03 µg/mL) |
| CC[C@@H](NC(=O)C[C@@H](C)[C@H]1CC[C@H]2[C@@H]3[C@H](O)C[C@@H]4C[C@H](OC)CC[C@]4(C)[C@H]3CC[C@]12C)c1ccc(Cl)s1 [Compound I-169] | 256 (≈ 141 µg/mL) | 256 (≈ 141 µg/mL) | 128 (≈ 70.4 µg/mL) |
| CC(C)[C@@H](NC(=O)C[C@@H](C)[C@H]1CC[C@H]2[C@@H]3[C@H](OC(=O)CCC(=O)O)C[C@@H]4CC(=O)CC[C@]4(C)[C@H]3CC[C@]12C)c1ccc(Br)s1 [Compound I-182] | 2 (≈ 1.39 µg/mL) | 2 (≈ 1.39 µg/mL) | 2 (≈ 1.39 µg/mL) |
| CC(C)[C@@H](NC(=O)C[C@@H](C)[C@H]1CC[C@H]2[C@@H]3C[C@H](O)[C@@H]4C[C@H](O)CC[C@]4(C)[C@H]3CC[C@]12C)c1ccc(Br)s1 [Compound I-128] | 2 (≈ 1.19 µg/mL) | 2 (≈ 1.19 µg/mL) | 1 (≈ 0.595 µg/mL) |
| CC[C@@H](NC(=O)C[C@@H](C)[C@H]1CC[C@H]2[C@@H]3[C@H](O)[C@H](O)[C@@H]4CC(=O)CC[C@]4(C)[C@H]3CC[C@]12C)c1ccc(Cl)s1 [Compound I-123] | 64 (≈ 35.2 µg/mL) | 64 (≈ 35.2 µg/mL) | 64 (≈ 35.2 µg/mL) |
| CC(C)[C@@H](NC(=O)C[C@@H](C)[C@H]1CC[C@H]2[C@@H]3[C@H](O)C[C@@H]4CC(=O)CC[C@]4(C)[C@H]3CC[C@]12C)c1ccc(Br)s1 [Compound I-100] | 0.25 (≈ 0.148 µg/mL) | 0.25 (≈ 0.148 µg/mL) | 0.25 (≈ 0.148 µg/mL) |
| CC[C@@H](NC(=O)C[C@@H](C)[C@H]1CC[C@H]2[C@@H]3[C@H](OP(=O)(O)O)C[C@@H]4CC(=O)CC[C@]4(C)[C@H]3CC[C@]12C)c1ccc(Cl)s1 [Compound I-191] | 64 (≈ 39.3 µg/mL) | 64 (≈ 39.3 µg/mL) | 64 (≈ 39.3 µg/mL) |
| CC[C@@H](NC(=O)C[C@@H](C)[C@H]1CC[C@H]2[C@@H]3[C@H](O)C[C@@H]4C[C@@H](O)CC[C@]4(C)[C@H]3CC[C@]12C)c1ccc(Br)s1 [Compound I-143] | 8 (≈ 4.65 µg/mL) | 4 (≈ 2.32 µg/mL) | 4 (≈ 2.32 µg/mL) |
| CC(C)[C@@H](NC(=O)C[C@@H](C)[C@H]1CC[C@H]2[C@@H]3[C@H](O)C[C@@H]4CC(=O)CC[C@]4(C)[C@H]3CC[C@]12C)c1ccc(Cl)s1 [Compound I-97] | 0.125 (≈ 0.0685 µg/mL) | 0.125 (≈ 0.0685 µg/mL) | 0.125 (≈ 0.0685 µg/mL) |
| CC(=O)O[C@@H]1CC2=CC(=O)C=C[C@]2(C)[C@H]2CC[C@]3(C)[C@@H]([C@H](C)CC(=O)N[C@@H](c4ccc(Cl)s4)C(C)C)CC[C@H]3[C@H]12 [I-162 -1] | 0.25 (≈ 0.147 µg/mL) | 0.5 (≈ 0.293 µg/mL) | 0.5 (≈ 0.293 µg/mL) |
| CC[C@H](NC(=O)C[C@@H](C)[C@H]1CC[C@H]2[C@@H]3C(=O)C[C@@H]4CC(=O)CC[C@]4(C)[C@H]3CC[C@]12C)c1ccc(Br)s1 [Compound I-71] | 32 (≈ 18.5 µg/mL) | 16 (≈ 9.23 µg/mL) | 16 (≈ 9.23 µg/mL) |

| Structure (SMILES) | MIC [1] [µM] | MIC [2] [µM] | MIC [3] [µM] |
| --- | --- | --- | --- |
| C[C@H](NC(=O)C[C@@H](C)[C@H]1CC[C@H]2[C@@H]3C(=O)C[C@@H]4CC(=O)CC[C@]4(C)[C@H]3CC[C@]12C)c1cccs1 [Compound I-28] | > 256 | > 256 | > 256 |
| CC(C)[C@@H](NC(=O)C[C@@H](C)[C@H]1CC[C@H]2[C@@H]3[C@H](O)C[C@@H]4C[C@H](O)CC[C@]4(C)[C@H]3CC[C@]12C)c1ccc(Cl)s1 [Compound I-139] | 2 (≈ 1.1 µg/mL) | 1 (≈ 0.55 µg/mL) | 1 (≈ 0.55 µg/mL) |
| C[C@H](CC(=O)NCc1ccccn1)[C@H]1CC[C@H]2[C@@H]3C(=O)C[C@@H]4C[C@H](O)CC[C@]4(C)[C@H]3CC[C@]12C [Compound I-16] | 256 (≈ 119 µg/mL) | 256 (≈ 119 µg/mL) | 256 (≈ 119 µg/mL) |
| C[C@H](CC(=O)NCc1nccs1)[C@H]1CC[C@H]2[C@@H]3[C@H](O)C[C@@H]4C[C@H](O)CC[C@]4(C)[C@H]3CC[C@]12C [Compound I-7] | 16 (≈ 7.6 µg/mL) | 16 (≈ 7.6 µg/mL) | 16 (≈ 7.6 µg/mL) |
| C[C@H](CC(=O)NCc1cccs1)[C@H]1CC[C@H]2[C@@H]3[C@H](O)C[C@@H]4C[C@H](O)CC[C@]4(C)[C@H]3C[C@H](O)[C@]12C [Compound I-18] | 32 (≈ 15.7 µg/mL) | 8 (≈ 3.92 µg/mL) | 8 (≈ 3.92 µg/mL) |
| CC(C)[C@@H](NC(=O)C[C@@H](C)[C@H]1CC[C@H]2[C@@H]3[C@H](O)C[C@@H]4C[C@@H](O)CC[C@]4(C)[C@H]3CC[C@]12C)c1ccc(Cl)s1 [Compound I-144] | 4 (≈ 2.2 µg/mL) | 2 (≈ 1.1 µg/mL) | 2 (≈ 1.1 µg/mL) |
| CC[C@@H](NC(=O)C[C@@H](C)[C@H]1CC[C@H]2[C@@H]3C(=O)C[C@@H]4CC(=O)CC[C@]4(C)[C@H]3CC[C@]12C)c1ccc(C=O)s1 [Compound I-199] | 16 (≈ 8.41 µg/mL) | 16 (≈ 8.41 µg/mL) | 16 (≈ 8.41 µg/mL) |
| CCCCCCCCCCCCCC(NC(=O)C[C@@H](C)[C@H]1CC[C@H]2[C@@H]3C(=O)C[C@@H]4CC(=O)CC[C@]4(C)[C@H]3CC[C@]12C)c1cccs1 (stereo partly drawn) [Compound I-47] | > 256 | > 256 | > 256 |
| CCC(NC(=O)C[C@@H](C)[C@H]1CC[C@H]2[C@@H]3C[C@H](O)[C@@H]4C[C@H](O)CC[C@]4(C)[C@H]3CC[C@]12C)c1ccc(Cl)s1 (stereo partly drawn) [Compound I-126] | 2 (≈ 1.07 µg/mL) | 2 (≈ 1.07 µg/mL) | 1 (≈ 0.536 µg/mL) |
| CC(NC(=O)C[C@@H](C)[C@H]1CC[C@H]2[C@@H]3C(=O)C[C@@H]4CC(=O)CC[C@]4(C)[C@H]3CC[C@]12C)c1ccccc1 (stereo partly drawn) [Compound I-23] | 4 (≈ 1.91 µg/mL) | 2 (≈ 0.955 µg/mL) | 2 (≈ 0.955 µg/mL) |
| CC(C)[C@@H](NC(=O)C[C@@H](C)[C@H]1CC[C@H]2[C@@H]3C(=O)C[C@@H]4CC(=O)CC[C@]4(C)[C@H]3CC[C@]12C)c1ccc(S(=O)(=O)O)s1 [Compound I-83] | 16 (≈ 9.47 µg/mL) | 16 (≈ 9.47 µg/mL) | 16 (≈ 9.47 µg/mL) |
| CC(C)[C@H](NC(=O)C[C@@H](C)[C@H]1CC[C@H]2[C@@H]3C(=O)C[C@@H]4CC(=O)CC[C@]4(C)[C@H]3CC[C@]12C)c1ccc(Br)s1 [Compound I-79] | 8 (≈ 4.73 µg/mL) | 8 (≈ 4.73 µg/mL) | 4 (≈ 2.36 µg/mL) |
| CC[C@@H](NC(=O)C[C@@H](C)[C@H]1CC[C@H]2[C@@H]3[C@H](O)C[C@@H]4CC(=O)CC[C@]4(C)[C@H]3CC[C@]12C)c1ccc(Cl)s1 [Compound I-88] | 0.25 (≈ 0.134 µg/mL) | 0.25 (≈ 0.134 µg/mL) | 0.125 (≈ 0.0668 µg/mL) |
| CC(NC(=O)C[C@@H](C)[C@H]1CC[C@H]2[C@@H]3C(=O)C[C@@H]4CC(=O)CC[C@]4(C)[C@H]3CC[C@]12C)c1cccs1 (stereo partly drawn) [Compound I-27] | 2 (≈ 0.967 µg/mL) | 2 (≈ 0.967 µg/mL) | 2 (≈ 0.967 µg/mL) |
| CC(C)[C@@H](NC(=O)C[C@@H](C)[C@H]1CC[C@H]2[C@@H]3[C@H](OC(=O)CCCCCCC(=O)O)C[C@@H]4CC(=O)CC[C@]4(C)[C@H]3CC[C@]12C)c1ccc(Br)s1 [Compound I-190] | 0.25 (≈ 0.187 µg/mL) | 0.25 (≈ 0.187 µg/mL) | 0.25 (≈ 0.187 µg/mL) |
| CC(C)C(NC(=O)C[C@@H](C)[C@H]1CC[C@H]2[C@@H]3C[C@H](O)[C@@H]4CC(=O)CC[C@]4(C)[C@H]3CC[C@]12C)c1ccc(Br)s1 (stereo partly drawn) [Compound I-130] | 4 (≈ 2.37 µg/mL) | 4 (≈ 2.37 µg/mL) | 4 (≈ 2.37 µg/mL) |
